These results are taken from patent publication US12441733B2, “Substituted 2,4-dioxotetrahydropyrimidines as intermediates in the synthesis of bruton's tyrosine kinase inhibitors” (Novartis AG, priority 2018, dated 2025).

This assay relates to TMD8 cells. Description: Resazurin cell viability (proliferation) assay in TMD8 DLBCL cells. In kind it is cell-based. As to conditions: Homo sapiens, TMD8 cells (BTK dependent), 72 h, 50% growth inhibition vs vehicle, read-out: TMD8 Prol GI50. Put shortly:
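TMD8 cells were seeded at 1×10^4 per well and treated 3 h later with compound, in an 8-point 1:4 dilution series starting at 1 μM, or DMSO, for 72 h at 37° C. Resazurin was added at 13 μg/ml final for the last 2 h, and fluorescence was read at ex 530/em 600 nm. GI50 versus vehicle was derived by curve fitting from triplicates.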

As for `Cc1ccc(C(=O)N2CCC3(CCN(CCc4ccc(-c5cc6c(-c7cc(F)cc(NC(=O)c8ccc(C(C)(C)O)cc8F)c7C)ncnc6[nH]5)cc4)CC3)CC2)cc1N1CCC(=O)NC1=O` [Compound 5, N-(3-(6-(4-(2-(9-(3-(2,4-Dioxotetrahydropyrimidin-1(2H)-yl)-4-methylbenzoyl)-3,9-diazaspiro[5.5]undecan-3-yl)ethyl)phenyl)-7H-pyrrolo[2,3-d]pyrimidin-4-yl)-5-fluoro-2-methylphenyl)-2-fluoro-4-(2-hydroxypropan-2-yl)benzamide], the GI50 is 0.47 nM.

As for `COc1ccc(C(=O)N2CCN(CCCCNCc3ccc(-c4cc5c(-c6cc(F)cc(NC(=O)c7ccc(C(C)(C)O)cc7F)c6C)ncnc5[nH]4)cc3)CC2)cc1N1CCC(=O)NC1=O` [Compound 40, N-(3-(6-(4-(((4-(4-(3-(2,4-dioxotetrahydropyrimidin-1(2H)-yl)-4-methoxybenzoyl)piperazin-1-yl)butyl)amino)methyl)phenyl)-7H-pyrrolo[2,3-d]pyrimidin-4-yl)-5-fluoro-2-methylphenyl)-2-fluoro-4-(2-hydroxypropan-2-yl)benzamide], the GI50 was determined as 3.43 nM.
